The source of these data is US9605005B2, “Alkynyl alcohols and methods of use” (Genentech, Inc., priority 2013, dated 2017).

Assay [1] addresses nuclear factor-kappa B (NF-kB)-inducing kinase (NIK) (Homo sapiens (Human), UniProt Q99558). The assay can be described thus: NIK enzyme inhibition assay (Transcreener ADP, NIK ADP-FP). It counts as biochemical. To be noted: purified NIK 0.5 nM, 10 μM ATP, fluorescence polarization; read-out: NIK ADP-FP (Ki μM).
Assay [2] has as its system REL-A (p65) nuclear translocation, HeLa cells. Kind of assay: REL-A (p65) nuclear translocation assay in HeLa cells (classical NF-kB signaling, TNF-α stimulated). It counts as cell-based. To be noted: Homo sapiens, 0.5 h; HeLa cells, 10 ng/mL TNF-α for 30 minutes; read-out: REL-A HeLa Transloc Assay (IC50). On the procedure:
(§1) Several assays were developed to profile the cellular activities of NIK inhibitors.
(§2) (2) A second set of cell assay are used to define the selectivity of NIK inhibitors toward inhibition of classical vs. non-classical NF-kB signaling and rely on quantification of the nuclear translocation of p52 (NF-kB2) and REL-A (p65) using high content cellular imaging. For the p52 (non-classical NF-kB signaling) nuclear translocation assay, HeLa cells are treated with different concentrations of compounds (0.2% DMSO final) in medium containing 10% fetal bovine serum and then stimulated with 100 ng/mL of an anti-lymphotoxin beta receptor antibody (R&D Systems) for 5 hours. In the REL-A nuclear translocation assay, HeLa cells are incubated with compounds (0.2% DMSO final) for 4.5 hours in medium containing 10% fetal bovine serum before stimulating them with 10 ng/mL tumor necrosis factor (TNF)-α (R&D Systems) for 30 minutes. Cells are fixed with 4% paraformaldehyde, permeabilized by adding 0.1% Triton X-100 in phosphate buffered saline, and then are incubated with either 2 ug/mL anti-p52 antibody (Millipore) or 400 ng/mL anti-REL-A (p65) antibody (Santa Cruz Biotechnology). Finally, the cells are incubated with an Alexa488-labeled secondary antibody (Invitrogen) and DRAQ5 DNA stain (Biostatus). Imaging is carried out using an Opera reader (Perkin Elmer) and data are analyzed with the aid of Acapella software (Perkin Elmer). The p52 or REL-Atranslocation into the nucleus is quantified by the ratio of the nuclear to cytoplasmic signal intensity. […] The compounds in listed in Table 1 have the corresponding inhibitory value (IC50 in micromolar) for NIK p52 Translocation Assay as set forth in Table 2.
(§3) The compounds in listed in Table 1 have the corresponding inhibitory values (IC50 in micromolar) for the Translocation Assays as set forth in Table 2.

For assay [3], the system named is p52 (NF-kB2) nuclear translocation, HeLa cells. The assay can be described thus: p52 (NF-kB2) nuclear translocation assay in HeLa cells (non-classical NF-kB signaling, anti-lymphotoxin beta receptor antibody stimulated). Format: cell-based. To be noted: Homo sapiens, 100 ng/mL anti-lymphotoxin beta receptor antibody for 5 hours, read-out: p52 HeLa Transloc Assay (IC50). Here is the method:
as §1, §2, §3

nuclear factor-kappa B (NF-kB)-inducing kinase (NIK), sequence (Q99558 whole entry): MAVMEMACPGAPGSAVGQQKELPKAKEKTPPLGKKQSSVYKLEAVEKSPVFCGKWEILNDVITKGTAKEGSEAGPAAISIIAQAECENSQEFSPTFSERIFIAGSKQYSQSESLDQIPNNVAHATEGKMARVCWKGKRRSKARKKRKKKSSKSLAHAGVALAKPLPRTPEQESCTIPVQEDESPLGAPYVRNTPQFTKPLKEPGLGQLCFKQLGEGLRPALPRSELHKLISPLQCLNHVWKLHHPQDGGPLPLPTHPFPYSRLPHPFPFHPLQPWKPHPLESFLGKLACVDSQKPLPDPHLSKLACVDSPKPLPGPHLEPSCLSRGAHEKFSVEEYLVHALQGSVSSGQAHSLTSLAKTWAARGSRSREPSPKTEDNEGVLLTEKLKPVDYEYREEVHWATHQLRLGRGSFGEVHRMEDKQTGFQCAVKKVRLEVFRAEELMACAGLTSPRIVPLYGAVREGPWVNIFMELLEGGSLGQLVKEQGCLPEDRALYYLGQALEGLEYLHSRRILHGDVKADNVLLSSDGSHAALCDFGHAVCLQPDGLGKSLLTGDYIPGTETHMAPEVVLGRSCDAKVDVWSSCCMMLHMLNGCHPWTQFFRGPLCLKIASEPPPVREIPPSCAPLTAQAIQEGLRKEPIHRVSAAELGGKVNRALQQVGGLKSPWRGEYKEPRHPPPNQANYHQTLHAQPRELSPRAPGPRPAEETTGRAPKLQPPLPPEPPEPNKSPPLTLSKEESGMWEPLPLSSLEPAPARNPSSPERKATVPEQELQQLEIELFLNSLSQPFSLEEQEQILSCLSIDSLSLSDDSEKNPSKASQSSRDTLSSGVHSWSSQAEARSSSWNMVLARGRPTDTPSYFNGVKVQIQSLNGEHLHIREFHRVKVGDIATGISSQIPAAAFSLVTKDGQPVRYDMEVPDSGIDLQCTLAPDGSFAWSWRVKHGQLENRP

As to `Cc1nnc([C@](C)(O)C#Cc2cccc(-n3nc(C(N)=O)c4ccccc43)c2)o1` [Compound 26, 1-[3-[(3R)-3-hydroxy-3-(5-methyl-1,3,4-oxadiazol-2-yl)but-1-ynyl]phenyl]indazole-3-carboxamide], the Ki in assay [1] was found to be 2.52 nM. The IC50 stood at 20000 nM in assay [2] and 1130 nM in assay [3].
`CN1CCC[C@@](O)(C#Cc2cccc(-n3nc(C(N)=O)c4ccc(F)cc43)c2)C1=O` [Compound 27, 6-fluoro-1-[3-[2-[(3R)-3-hy-droxy-1-methyl-2-oxo-3-pipe-ridyl]ethynyl]phenyl]inda-zole-3-carboxamide]: in assay [1], the Ki was 3.75 nM. Further, the IC50 in assay [2] worked out at 20000 nM; in assay [3] it was 322 nM.
Turning to `CN1CC[C@@](O)(C#Cc2cc(-n3nc(C(N)=O)c4cccnc43)ccc2F)C1=O` [Compound 31, 1-[4-fluoro-3-[2-[(3R)-3-hy-droxy-1-methyl-2-oxo-pyrroli-din-3-yl]ethynyl]phenyl] pyrazolo[3,4-b]pyridine-3-carboxamide], the Ki in assay [1] amounted to 0.62 nM. The IC50 in assay [2] was found to be 20000 nM; in assay [3], 67.1 nM.
Consider `CN1CC[C@@](O)(C#Cc2cccc(-n3nc(C(N)=O)c4cc(CO)ccc43)c2)C1=O` [Compound 35, 5-(hydroxymethyl)-1-[3-[2-[(3R)-3-hydroxy-1-methyl-2-oxo-pyrrolidin-3-yl]ethynyl]phenyl]indazole-3-carbox-amide], for which the Ki in assay [1] came out at 1.48 nM. Also, the results for the IC50 in assay [2] and in assay [3] were 20000 nM and 737 nM, respectively.
The matching figures for `CN1CC[C@@](O)(C#Cc2cc(-n3nc(C(N)=O)c4cccnc43)cc(C(F)(F)F)c2)C1=O` [Compound 36, 1-[3-[2-[(3R)-3-hydroxy-1-methyl-2-oxo-pyrrolidin-3-yl]ethynyl]-5-(trifluorometh-yl)phenyl]pyrazolo[3,4-b] pyridine-3-carboxamide]: 5.53 nM, 20000 nM and 164 nM.
As for `CN1CC[C@@](O)(C#Cc2cccc(-n3nc(C(N)=O)c4c(Cl)cccc43)c2)C1=O` [Compound 39, 4-chloro-1-[3-[2-[(3R)-3-hydroxy-1-methyl-2-oxo-pyrroli-din-3-yl]ethynyl]phenyl] indazole-3-carboxamide], in assay [1], the Ki is 1.21 nM. Besides, the IC50 in assay [2] was 20000 nM; in assay [3], 108 nM.
Regarding `CN1CC[C@@](O)(C#Cc2cccc(-n3nc(C(N)=O)c4cc(CC#N)ccc43)c2)C1=O` [Compound 41, 5-(cyanomethyl)-1-[3-[2-[(3R)-3-hydroxy-1-methyl-2-oxo-pyrrolidin-3-yl]ethynyl]phenyl]indazole-3-carboxamide], in assay [1], the Ki amounted to 0.32 nM. Moreover, the values for the IC50 in assay [2] and in assay [3] were 20000 nM and 52.5 nM, respectively.
In the case of `CN1CC[C@@](O)(C#Cc2cccc(-n3nc(C(N)=O)c4cc(C#N)ccc43)c2)C1=O` [Compound 42, 5-cyano-1-[3-[2-[(3R)-3-hy-droxy-1-methyl-2-oxo-pyrroli-din-3-yl]ethynyl]phenyl] indazole-3-carboxamide], in assay [1], the Ki was found to be 0.64 nM. Moreover, the IC50 in assay [2] came to 20000 nM; in assay [3], 392 nM.
As to `C[C@@H](O)c1ccc2c(c1)c(C(N)=O)nn2-c1cccc(C#C[C@]2(O)CCN(C)C2=O)c1` [Compound 43, 5-[(1R)-1-hydroxyethyl]-1-[3-[2-[(3R)-3-hydroxy-1-meth-yl-2-oxo-pyrrolidin-3-yl]ethynyl]phenyl]indazole-3-carboxamide], the Ki in assay [1] turned out to be 1.6 nM. Further, the figures for the IC50 in assay [2] and in assay [3] were 20000 nM and 921 nM, respectively.
In the same order, the values of `CN1CC[C@@](O)(C#Cc2cc(Cl)cc(-n3nc(C(N)=O)c4cccnc43)c2)C1=O` [Compound 44, 1-[3-chloro-5-[2-[(3R)-3-hy-droxy-1-methyl-2-oxo-pyrroli-din-3-yl]ethynyl]phenyl] pyrazolo[3,4-b]pyridine-3-carboxamide] are 0.5 nM, 20000 nM and 62 nM.
In the case of `CN1CC[C@@](O)(C#Cc2cccc(-n3nc(C(N)=O)c4ccc(C#N)cc43)c2)C1=O` [Compound 46, 6-cyano-1-[3-[2-[(3R)-3-hy-droxy-1-methyl-2-oxo-pyrroli-din-3-yl]ethynyl]phenyl] indazole-3-carboxamide], the inhibition constant (Ki) in assay [1] is 0.5 nM. Besides, the figures for the IC50 in assay [2] and in assay [3] were 20000 nM and 123 nM, respectively.
`CNc1nccc2c1c(C(N)=O)nn2-c1cccc(C#C[C@]2(O)CCN(C)C2=O)c1` [Compound 49, 1-[3-[2-[(3R)-3-hydroxy-1-methyl-2-oxo-pyrrolidin-3-yl]ethynyl]phenyl]-4-(meth-ylamino)pyrazolo[4,3-c]pyri-dine-3-carboxamide]: the inhibition constant Ki in assay [1] is 0.05 nM. The 50% inhibitory concentration (IC50) in assay [2] came out at 8000 nM; in assay [3], 7.7 nM.
`CN1CC[C@@](O)(C#Cc2ccnc(-n3nc(C(N)=O)c4c3CCC4)c2)C1=O` [Compound 56, 1-[4-[2-[(3R)-3-hydroxy-1-methyl-2-oxo-pyrrolidin-3-yl]ethynyl]-2-pyridyl]-5,6-dihydro-4H-cyclopenta[c]py-razole-3-carboxamide]: the Ki in assay [1] was 0.87 nM. In addition, the IC50 in assay [2] was 20000 nM; in assay [3], 355 nM.
For the compound `CN1CC[C@@](O)(C#Cc2cccc(-n3nc(C(N)=O)c4c3CCCC4)c2)C1=O` [Compound 57, 1-[3-[2-[(3R)-3-hydroxy-1-methyl-2-oxo-pyrrolidin-3-yl]ethynyl]phenyl]-4,5,6,7-tetra-hydroindazole-3-carbox-amide], in assay [1], the Ki is 1.4 nM. Also, the IC50 in assay [2] was found to be 20000 nM; in assay [3], 405 nM.
With `Cc1cc([C@](C)(O)C#Cc2ccnc(-n3nc(C(N)=O)c4c3CCCC4)c2)no1` [Compound 60, 1-[4-[(3R)-3-hydroxy-3-(5-methylisoxazol-3-yl)but-1-ynyl]-2-pyridyl]-4,5,6,7-tetra-hydroindazole-3-carbox-amide], in assay [1], the Ki worked out at 13.7 nM. Moreover, the half-maximal inhibitory concentration (IC50) in assay [2] is 20000 nM; in assay [3], 2310 nM.
For `CN1CC[C@@](O)(C#Cc2ccnc(-n3nc(C(N)=O)c4ccc(F)cc43)c2)C1=O` [Compound 63, 6-fluoro-1-[4-[2-[(3R)-3-hy-droxy-1-methyl-2-oxo-pyrroli-din-3-yl]ethynyl]-2-pyri-dyl]indazole-3-carboxamide], in assay [1], the Ki came out at 0.1 nM. The IC50 was 2000 nM in assay [2] and 27 nM in assay [3].
In the case of `CN1CC[C@@](O)(C#Cc2ccnc(-n3nc(C(N)=O)c4c3CCC(C)(C)C4)c2)C1=O` [Compound 64, 1-[4-[2-[(3R)-3-hydroxy-1-methyl-2-oxo-pyrrolidin-3-yl]ethynyl]-2-pyridyl]-5,5-dimethyl-6,7-dihydro-4H-inda-zole-3-carboxamide], the Ki in assay [1] is 3.06 nM. In addition, the IC50 in assay [2] is 3030 nM; in assay [3], 2310 nM.
Turning to `COc1ccc2c(c1)c(C(N)=O)nn2-c1cc(C#C[C@]2(O)CCN(C)C2=O)ccn1` [Compound 65, 1-[4-[2-[(3R)-3-hydroxy-1-methyl-2-oxo-pyrrolidin-3-yl]ethynyl]-2-pyridyl]-5-meth-oxy-indazole-3-carboxamide], the Ki in assay [1] came out at 0.05 nM. Further, the IC50 in assay [2] was determined as 2000 nM; in assay [3], 14 nM.
As for `CN1CC[C@@](O)(C#Cc2ccnc(-n3nc(C(N)=O)c4cc(Br)ccc43)c2)C1=O` [Compound 66, 5-bromo-1-[4-[2-[(3R)-3-hy-droxy-1-methyl-2-oxo-pyrroli-din-3-yl]ethynyl]-2-pyri-dyl]indazole-3-carboxamide], in assay [1], the Ki is 0.15 nM. Also, the half-inhibitory concentration (IC50) was found to be 20000 nM in assay [2] and 55 nM in assay [3].
For the compound `Cc1nnc([C@](C)(O)C#Cc2cccc(-n3nc(C(N)=O)c4cccnc43)c2)o1` [Compound 67, 1-[3-[(3R)-3-hydroxy-3-(5-methyl-1,3,4-oxadiazol-2-yl)but-1-ynyl]phenyl]pyrazo-lo[3,4-b]pyridine-3-carbox-amide], in assay [1], the Ki was found to be 3.14 nM. The IC50 amounted to 20000 nM in assay [2] and 893 nM in assay [3].
In the case of `CN1CC[C@@](O)(C#Cc2cccc(-n3nc(C(N)=O)c4c3COCC4)c2)C1=O` [Compound 69, 1-[3-[2-[(3R)-3-hydroxy-1-methyl-2-oxo-pyrrolidin-3-yl]ethynyl]phenyl]-5,7-dihy-dro-4H-pyrano[3,4-c]pyrazole-3-carboxamide], the Ki in assay [1] came to 3.98 nM. The 50% inhibitory concentration (IC50) in assay [2] is 20000 nM; in assay [3], 945 nM.

For orientation: Ki means the equilibrium dissociation constant of an inhibitor or competing ligand from its target. Broadly, the IC50 is the point on the concentration scale where inhibition reaches its midpoint.
